The assay addresses T1, ASK1 (Homo sapiens, UniProt Q99683).
T1 construct: expressed in transfected cells; host or cells: HEK293T
T1 sequence (Q99683 1-1374): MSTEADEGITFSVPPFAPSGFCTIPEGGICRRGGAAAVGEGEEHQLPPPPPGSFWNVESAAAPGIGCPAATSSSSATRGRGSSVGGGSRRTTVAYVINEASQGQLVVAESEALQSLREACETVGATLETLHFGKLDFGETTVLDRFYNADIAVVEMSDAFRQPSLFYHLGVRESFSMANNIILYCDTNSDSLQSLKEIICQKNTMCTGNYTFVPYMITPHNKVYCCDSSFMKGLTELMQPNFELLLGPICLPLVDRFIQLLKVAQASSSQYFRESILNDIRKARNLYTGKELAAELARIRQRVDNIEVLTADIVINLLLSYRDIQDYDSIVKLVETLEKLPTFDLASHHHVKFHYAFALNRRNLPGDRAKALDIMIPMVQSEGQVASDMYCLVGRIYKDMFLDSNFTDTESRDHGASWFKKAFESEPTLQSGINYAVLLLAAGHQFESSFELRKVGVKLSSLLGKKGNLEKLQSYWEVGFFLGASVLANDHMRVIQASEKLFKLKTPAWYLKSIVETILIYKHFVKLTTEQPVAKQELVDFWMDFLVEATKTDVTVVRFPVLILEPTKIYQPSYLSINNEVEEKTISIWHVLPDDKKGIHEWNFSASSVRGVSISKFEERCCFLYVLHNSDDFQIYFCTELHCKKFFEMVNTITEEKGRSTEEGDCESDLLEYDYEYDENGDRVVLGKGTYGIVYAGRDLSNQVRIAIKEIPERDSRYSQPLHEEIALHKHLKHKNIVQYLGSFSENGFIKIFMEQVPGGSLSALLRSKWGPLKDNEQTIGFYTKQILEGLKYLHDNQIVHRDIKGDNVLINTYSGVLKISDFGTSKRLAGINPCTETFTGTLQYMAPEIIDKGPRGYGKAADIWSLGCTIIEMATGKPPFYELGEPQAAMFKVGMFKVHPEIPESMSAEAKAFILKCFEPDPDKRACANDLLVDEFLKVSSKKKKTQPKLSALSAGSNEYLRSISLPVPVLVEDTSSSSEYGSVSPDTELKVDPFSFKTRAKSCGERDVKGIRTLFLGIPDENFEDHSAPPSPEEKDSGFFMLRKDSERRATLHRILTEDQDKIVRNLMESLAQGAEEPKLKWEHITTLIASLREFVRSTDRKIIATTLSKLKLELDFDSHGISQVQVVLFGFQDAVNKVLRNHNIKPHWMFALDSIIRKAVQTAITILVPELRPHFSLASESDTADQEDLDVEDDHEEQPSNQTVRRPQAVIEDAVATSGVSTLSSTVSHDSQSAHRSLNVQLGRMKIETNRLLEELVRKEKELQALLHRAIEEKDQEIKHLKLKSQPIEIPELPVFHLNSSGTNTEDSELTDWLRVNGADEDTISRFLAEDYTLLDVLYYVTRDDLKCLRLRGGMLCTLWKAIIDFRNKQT
Description: ASK1-MKK6-p38 coupled in vitro kinase assay. Format: biochemical. The procedure: Suppression of thapsigargin-induced phosphorylation of p38MAPK was also measured by a quantitative ELISA-methods, with IC50 for p38MAPK phosphorylation estimated at <5 μM. In contrast, thapsigargin-induced expression of CHOP, expression of ATF4, proteolytic processing of ATF6, phosphorylation of eIF2a (Ser 51), auto-phosphorylation of Ire1a or auto-phosphorylation of ASK1 were not inhibited directly by CID-2878746 at concentrations up to 50 μM tested by in vitro kinase assay using p32-γ-ATP substrate. […] Thapsigargin-induced reductions in phosphorylation of ASK1 at the serine 967 site in ASK1 transfected 293T cells are inhibited by compound 5962123 at concentrations of 50-100 μM, as determined by immunoblotting using anti-phospho-specific (ser 967) antibody, but thapsigargin-induced changes in phosphorylation of ASK1 at ser 83 and thr 845 are not modulated by compound 5962123 at concentrations as high as 100 μM in ASK1-transfected HEK293T cells.
C-Jun and p38 MAPK work downstream of the Ire1 pathway (see FIG. 21), we tested whether one of our hit compounds (6239507) inhibits autophosphorylation of any of kinases in this Ire1-ASK1-JNK/p38 MAPK pathway. […] An Ire1 autophosphorylation assay was performed. […] Incorporation values of ^32P-γ-ATP were evaluated by a scintillation counter. […] Incorporation values of ^32P-γ-ATP were evaluated by a scintillation counter. […]

`CCN(CC)c1ccc(C2Nc3ccccc3NC3=C2C(=O)CC(c2ccccc2)C3)cc1` (centres unmarked) [Compound 5962123, 6-(4-diethylaminophenyl)-9-phenyl-5,6,8,9,10,11-hexahydrobenzo[c][1,5]benzodiazepin-7-one]: the “Thapsigargin-induced activation of ASK1 in cells” value (coupled assay with MKK6 and p38MAPK, ASK1 immunoprecipitated from compound-treated (100 μM) HEK293T cells) is on record as “failed to inhibit”. For `COc1ccc(C2CC(=O)C3=C(C2)Nc2ccccc2NC3c2cccc(Oc3ccccc3)c2)cc1OC` (centres unmarked) [Compound 6239507], under “kinases incubated with 50 μM compound in vitro”, the “Ask1's activity with respect to downstream kinases MKK6 and p38 MAPK” value was “does not modulate”.

These data come from US20080293699A1, “Inhibitors of thapsigargin-induced cell death” (priority 2007, published 2008).
